In the supplement of paper PMC10307832:

Columns and labels:
Experiment in all cases: relative viability (nuclei count vs DMSO), 5 days (fraction); higher = more cells survive
GSK126 + Pictilisib = compound: CC[C@H](C)N1C=C(C2=C(C=C(C=C21)C3=CN=C(C=C3)N4CCNCC4)C(=O)NCC5=C(C=C(NC5=O)C)C)C [GSK126] + CS(=O)(=O)N1CCN(Cc2cc3nc(-c4cccc5[nH]ncc45)nc(N4CCOCC4)c3s2)CC1 [Pictilisib] (partner 1 µM)
Procedure, shortened: (§1)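 Cells from lung cancer lines were seeded into 1536-well plates and, one day later, dosed by pin tool. Treatments were either a single drug or a fixed dose of an anchor drug with five library-drug doses (not always all listed) in √10 steps. After 5 days, nuclei were stained in a one-step fixation (final 0.05% Triton X-100, 1% formaldehyde, 1 ug/ml Hoechst) and counted on 4× images, and relative viability is the treated-to-vehicle nuclei ratio, as the median of duplicate plates.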

MLN4924 + Palbociclib = compound: NS(=O)(=O)OC[C@@H]1C[C@@H](n2ccc3c(N[C@H]4CCc5ccccc54)ncnc32)C[C@@H]1O [MLN4924] + CC(=O)c1c(C)c2cnc(Nc3ccc(N4CCNCC4)cn3)nc2n(C2CCCC2)c1=O [Palbociclib] (partner 0.5 µM)
Procedure, shortened: as §1

MLN4924 + Linsitinib = compound: NS(=O)(=O)OC[C@@H]1C[C@@H](n2ccc3c(N[C@H]4CCc5ccccc54)ncnc32)C[C@@H]1O [MLN4924] + C[C@]1(O)C[C@@H](c2nc(-c3ccc4ccc(-c5ccccc5)nc4c3)c3c(N)nccn32)C1 [Linsitinib] (partner 1 µM)
Procedure, shortened: as §1

GSK126 + Navitoclax = compound: CC[C@H](C)N1C=C(C2=C(C=C(C=C21)C3=CN=C(C=C3)N4CCNCC4)C(=O)NCC5=C(C=C(NC5=O)C)C)C [GSK126] + CC1(C)CCC(c2ccc(Cl)cc2)=C(CN2CCN(c3ccc(C(=O)NS(=O)(=O)c4ccc(N[C@H](CCN5CCOCC5)CSc5ccccc5)c(S(=O)(=O)C(F)(F)F)c4)cc3)CC2)C1 [Navitoclax] (partner 0.5 µM)
Procedure, shortened: as §1

UMC-11 was tested, and the relative viability (GSK126 + Pictilisib; first compound 0.08 µM) was 0.91, the relative viability (GSK126 + Pictilisib; first compound 0.253 µM) was 0.85 and the relative viability (GSK126 + Pictilisib; first compound 0.8 µM) was 0.882. The relative viability (GSK126 + Pictilisib; first compound 2.53 µM) was 0.829, the relative viability (GSK126 + Pictilisib; first compound 8 µM) was 0.714 and the relative viability (MLN4924 + Palbociclib; first compound 0.04 µM) was 0.335. It also gave a relative viability (MLN4924 + Palbociclib; first compound 0.1265 µM) of 0.336, a relative viability (MLN4924 + Palbociclib; first compound 0.4 µM) of 0.321 and a relative viability (MLN4924 + Palbociclib; first compound 1.265 µM) of 0.245. It also gave a relative viability (MLN4924 + Palbociclib; first compound 4 µM) of 0.249, a relative viability (MLN4924 + Linsitinib; first compound 0.04 µM) of 0.645 and a relative viability (MLN4924 + Linsitinib; first compound 0.1265 µM) of 0.331. It also gave a relative viability (MLN4924 + Linsitinib; first compound 0.4 µM) of 0.238, a relative viability (MLN4924 + Linsitinib; first compound 1.265 µM) of 0.194 and a relative viability (MLN4924 + Linsitinib; first compound 4 µM) of 0.153. It also gave a relative viability (GSK126 + Navitoclax; first compound 0.08 µM) of 0.323, a relative viability (GSK126 + Navitoclax; first compound 0.253 µM) of 0.314 and a relative viability (GSK126 + Navitoclax; first compound 0.8 µM) of 0.316. For the same cell line, the relative viability (GSK126 + Navitoclax; first compound 2.53 µM) was 0.264 and the relative viability (GSK126 + Navitoclax; first compound 8 µM) was 0.279.
